Reference: patent US20170340629A1 (AB SCIENCE, priority 2014, published 2017)
Structures can show the parent of a compound that is named as a salt. Where two headings read alike, the source gives them in different places.

What was measured:
[1] = system: CMT-U27 canine mammary carcinoma cell line; experiment: MTT proliferation assay and combination index, CMT-U27; assay type: cell-based; settings: for IC50: single agent, read-out: IC50 growth inhibitory activity
Protocol: (§1) Two canine mammary tumor (CMT) cell lines were evaluated, CMT-U27 and CMT-U309. CMT-U27 is a highly metastatic canine mammary carcinoma cell line while CMT-U309 is a non-metastatic spindle-cell cell line. Cell lines were maintained in Dulbecco's modified Eagles Medium-F12 supplemented with 10% fetal bovine serum and antimicrobials (penicillin [100 U/mL] and streptomycin [0.1 mg/mL]). Cell lines were maintained in a humidified atmosphere of 5% carbon dioxide at 37° C.
(§2) Solutions were prepared newly prepared from the stock solution for each experiment.
(§3) Cells were seeded at a density of 1.0×10^4 cells/well (final volume, 100 μL/well) in three replicates. […] At the end of treatment, 10 μl of MTT solution (5 mg/ml in PBS) was added to each well. The plates were incubated for 4 hours in a humidified atmosphere at 37° C. with 5% CO2. After that incubation, cell proliferation was assessed by use of a commercial cell proliferation MTT [3-(4,5-dimethylthiazol-2-yl)-2,5-diphenyltrazolium bromide] kit. All samples were assayed in triplicate, and the mean for each experiment was calculated. The effect of each compound on growth inhibition was assessed as percent cell viability where vehicle-treated cells were taken as 100% viable. Cell proliferation was expressed as a percentage of the control wells by use of the following equation: (absorbance of sample wells/absorbance of control wells)×100. The mean of triplicate experiments for each dose was used to calculate IC50 as determined by CalcuSyn software.

[2] = system: CMT-U309 canine mammary tumor cell line; experiment: MTT proliferation assay and combination index, CMT-U309; settings: for Viability (%): 72 hours incubation, doses at single-agent IC50 concentrations; for IC50: single agent
Protocol: as §1, §2, §3

Mia Paca-2 cells = experiment: WST-1 proliferation/survival assay, gemcitabine-resistant Mia Paca-2; assay type: cell-based; settings: for IC50: Homo sapiens, 72 hours, 1% FCS, read-out: IC50 single agent; for sensitization of cells to gemcitabine by TKI pre-incubation: TKI 5 or 10 μM overnight before gemcitabine, FIG. 2; for cell proliferation, single agent: TKI 10 μM
Protocol: The antiproliferative activity of each TKI and gemcitabine is assessed using a WST-1 proliferation/survival assay in growth medium containing 1% fetal calf serum (FCS). Treatment is started with the addition of the relevant drug. For combination treatment (TKI plus gemcitabine), cells are re-suspended in medium (1% FCS) containing 0, 5 or 10 μM of the relevant TKI and incubated overnight before gemcitabine addition. After 72 hours, WST-1 reagent is added and incubated with the cells for 4 hours before absorbance measurement at 450 nm in an EL800 Universal Microplate Reader (Bio-Tek Instruments Inc.). Media alone is used as a blank and proliferation in the absence of drug served as a positive control. A TKI sensitization index is calculated as the ratio of the IC50 of gemcitabine against the IC50 of the drug combination.

[3] = system: metastatic or locally advanced breast cancer (except triple negative); settings: patients resistant to at least one first-line chemotherapy; literature (Miller 2005; Brodowicz 2000); cited from earlier work
MDAMB134 = experiment: WST-1 proliferation/viability assay, MDAMB134; assay type: cell-based, human; settings: 72 h, 1% FCS
Protocol: (§4) Breast cancer cell lines (generous gift from Dr. […], UMR 599 INSERM, Marseille, France) were cultured as monolayers in RPMI 1640 medium, containing L-glutamine supplemented with 100 U/mL penicillin and 100 μg/mL streptomycin, and 10% v/v heat-inactivated fetal calf serum (AbCys Lot S02823S1800) under standard culture conditions (5% CO2, 95% air in humidified chamber at 37° C.). During proliferation assay, all cells were grown in medium containing 1% FCS. Colorimetric cell proliferation and viability assay (reagent WST-1 purchased from Roche cat N^o 1644807)-Cells were washed once and resuspended in RPMI 1% FCS. Cells were plated at 1×10^4/50 μl per well of a 96 well plate. […] Treatment was started by the addition of 50 μl of a 2× concentrated drug solution to a final volume of 100 μl. […] After incubating for 72 hours at 37° C., 10 μl of a 1⁄2 dilution of WST-1 reagent was added to each well and the plates were returned to the incubator for an additional 4 hours. The absorbance of the samples was measured at 490 nm using an EL800 Universal microplate reader (Bio-Tek Instruments Inc.). A background control without cells was used as a blank. The positive control of the assay corresponds to the cell proliferation obtained in the absence of drug treatment (100% proliferation). Each sample was done in duplicate, the absorbance values were transferred to an excel file, the average and standard deviation of the duplicates were calculated and expressed as a percentage of the proliferation obtained in absence of treatment. The results presented are representative of a minimum of four experiments.

MDAMB231 = experiment: WST-1 proliferation/viability assay, MDAMB231; assay type: cell-based, human; settings: 72 h, 1% FCS
Protocol: as §4

MCF-7 = experiment: WST-1 proliferation/viability assay, MCF-7; assay type: cell-based; settings: Homo sapiens, 72 h, 1% FCS
Protocol: as §4, with “The positive control of the assay corresponds to the cell proliferation obtained in the absence of drug treatment (100% proliferation).” left out, “The results presented are representative of a minimum of four experiments.” left out

HCC1937 = experiment: WST-1 proliferation/viability assay, HCC1937; assay type: cell-based; settings: Homo sapiens, doxorubicin single agent, 72 h, 1% FCS
Protocol: as §4, with “The positive control of the assay corresponds to the cell proliferation obtained in the absence of drug treatment (100% proliferation).” left out, “The results presented are representative of a minimum of four experiments.” left out

BT474 = experiment: WST-1 proliferation/viability assay, BT474; assay type: cell-based, human; settings: 72 h, 1% FCS
Protocol: as §4, with “The positive control of the assay corresponds to the cell proliferation obtained in the absence of drug treatment (100% proliferation).” left out, “The results presented are representative of a minimum of four experiments.” left out

[4] = system: relapsed or refractory inflammatory breast cancer; settings: lapatinib 1500 mg/day; 126 patients; Kaufman et al. 2009; cited from earlier work
[5] = system: TNBC (metastatic or locally advanced); settings: cisplatin alone (N = 58); Baselga et al. 2013; cited from earlier work
BT20 = experiment: WST-1 proliferation/viability assay, BT20; assay type: cell-based; settings: Homo sapiens, BT-20, gemcitabine single agent, 72 h, 1% FCS
Protocol: as §4, with “The positive control of the assay corresponds to the cell proliferation obtained in the absence of drug treatment (100% proliferation).” left out, “The results presented are representative of a minimum of four experiments.” left out

breast cancer cell lines = experiment: WST-1 proliferation assay, masitinib mesilate single agent; assay type: cell-based; settings: Homo sapiens, 1% FCS
Protocol: Breast cancer cell lines (generous gift from Dr. […], UMR 599 INSERM, Marseille, France) were cultured as monolayers in RPMI 1640 medium, containing L-glutamine supplemented with 100 U/mL penicillin and 100 μg/mL streptomycin, and 10% v/v heat-inactivated fetal calf serum (AbCys Lot S02823S1800) under standard culture conditions (5% CO2, 95% air in humidified chamber at 37° C.). During proliferation assay, all cells were grown in medium containing 1% FCS. Colorimetric cell proliferation and viability assay (reagent WST-1 purchased from Roche cat N^o 1644807)-Cells were washed once and resuspended in RPMI 1% FCS. Cells were plated at 1×10^4/50 μl per well of a 96 well plate. […] Treatment was started by the addition of 50 μl of a 2× concentrated drug solution to a final volume of 100 μl. […] The absorbance of the samples was measured at 490 nm using an EL800 Universal microplate reader (Bio-Tek Instruments Inc.). […] Each sample was done in duplicate, the absorbance values were transferred to an excel file, the average and standard deviation of the duplicates were calculated and expressed as a percentage of the proliferation obtained in absence of treatment. […] Breast cancer cell lines were first analyzed for their sensitivity to masitinib mesilate when used as single agent.

[6] = Canis lupus familiaris, 24 h, read-out: IC50 growth inhibitory activity, CMT-U309, 24 h
[7] = Canis lupus familiaris, 48 h, read-out: IC50 growth inhibitory activity, CMT-U309, 48 h
[8] = Canis lupus familiaris, 72 h, read-out: IC50 growth inhibitory activity, CMT-U309, 72 h
[9] = carboplatin single agent, read-out: IC50 CPT

Cc1ccc(NC(=O)c2ccc(CN3CCN(C)CC3)cc2)cc1Nc1nc(-c2cccnc2)cs1 [Masitinib, 4-(4-methylpiperazin-1-ylmethyl)-N-[4-methyl-3-(4-pyridin-3ylthiazol-2-ylamino)phenyl]benzamide]
IC50 ([1]; 72 h): 7.5 µM | Viability (%) ([1]; 72 hours incubation, doses at single-agent IC50 concentrations): 77.3% | IC50 ([1]; Canis lupus familiaris, 24 h): 9.13 µM | IC50 ([1]; Canis lupus familiaris, 48 h): 7.61 µM | IC50 ([1]; Canis lupus familiaris, 72 h): 7.5 µM | Viability (%) ([2]; CMT-U309): 66.0% | IC50 [2, 6]: 15 µM | IC50 [2, 7]: 8.87 µM | IC50 [2, 8]: 8.5 µM | IC50 ([2]; read-out: IC50 growth inhibitory activity, CMT-U309, 72 h): 8.54 µM | IC50 (Mia Paca-2 cells): 5 to 10 µM | sensitization of cells to gemcitabine by TKI pre-incubation (Mia Paca-2 cells): significantly sensitized | cells remaining resistant (Mia Paca-2 cells; masitinib concentration of 10 μM, FIG. 1): more than 50%

CCCCCOC(=O)Nc1nc(=O)n([C@@H]2O[C@H](C)[C@@H](O)[C@H]2O)cc1F [capecitabine]
Median OS (months), benchmark single agent (L2) [3]: 14.5 months

CCc1c2c(nc3ccc(OC(=O)N4CCC(N5CCCCC5)CC4)cc13)-c1cc3c(c(=O)n1C2)COC(=O)[C@]3(O)CC [CPT-11, irinotecan]
IC50 (MDAMB134; Homo sapiens, irinotecan single agent, read-out: IC50 CPT-11): 30 µM | IC50 (MDAMB231; Homo sapiens, MDA-MB-231, irinotecan single agent, read-out: IC50 CPT-11): 30 µM | IC50 (MCF-7; MCF7, irinotecan single agent, read-out: IC50 CPT-11): 100 µM

Cc1ccc(NC(=O)c2ccc(CN3CCN(C)CC3)cc2)cc1Nc1nccc(-c2cccnc2)n1 [imatinib]
cell proliferation, single agent (Mia Paca-2 cells; FIG. 1): only weakly inhibited | sensitization of cells to gemcitabine by TKI pre-incubation (Mia Paca-2 cells): does not result in an increased response

COc1cccc2c1C(=O)c1c(O)c3c(c(O)c1C2=O)C[C@@](O)(C(=O)CO)C[C@@H]3O[C@H]1C[C@H](N)[C@H](O)[C@H](C)O1 [DOX, doxorubicin]
IC50 (MDAMB134; Homo sapiens, doxorubicin single agent, read-out: IC50 DOX): 1 µM | IC50 (MDAMB231; Homo sapiens, MDA-MB-231, doxorubicin single agent, read-out: IC50 DOX): 1 µM | IC50 (HCC1937): 1 µM | IC50 (MCF-7; MCF7, doxorubicin single agent, read-out: IC50 DOX): 1 µM

Cc1nc(Nc2ncc(C(=O)Nc3c(C)cccc3Cl)s2)cc(N2CCN(CCO)CC2)n1 [dasatinib]
cell proliferation, single agent (Mia Paca-2 cells; FIG. 1): affected by a similar extent | sensitization of cells to gemcitabine by TKI pre-incubation (Mia Paca-2 cells): does not result in an increased response | cell proliferation at low concentrations (Mia Paca-2 cells; concentrations superior to 0.1 μM): partial inhibition

O=C1c2c(O)ccc(O)c2C(=O)c2c(NCCNCCO)ccc(NCCNCCO)c21 [Mitoxantrone, Mitoxantrone dihydrochloride]
IC50 ([1]; 72 h, listed as Mixoxantrone, dihydrochloride): 0.219 µM | IC50 ([1]; Canis lupus familiaris, 24 h): 3.09 µM | IC50 ([1]; Canis lupus familiaris, 48 h): 1.11 µM | IC50 ([1]; Canis lupus familiaris, 72 h): 0.22 µM | Viability (%) ([2]; CMT-U309): 56.8% | IC50 [2, 6]: 2.77 µM | IC50 [2, 7]: 1 µM | IC50 [2, 8]: 0.75 µM | IC50 ([2]; read-out: IC50 growth inhibitory activity, CMT-U309, 72 h, dihydrochloride): 0.751 µM

N.N.O=C([O-])C1(C(=O)[O-])CCC1.[Pt+2] [CPT, carboplatin]
IC50 (BT474; [9]): > 100 µM | IC50 (MDAMB134; [9]): > 100 µM | IC50 (MDAMB231; [9]): > 100 µM

CS(=O)(=O)CCNCc1ccc(-c2ccc3ncnc(Nc4ccc(OCc5cccc(F)c5)c(Cl)c4)c3c2)o1 [Lapatinib, lapatinib]
Median overall survival [4]: 11.2 months

N.N.[Cl][Pt][Cl] [Cisplatin, cisplatin]
Median OS (months) [5]: 9.4 months

Nc1ccn([C@@H]2O[C@H](CO)[C@@H](O)C2(F)F)c(=O)n1 [GCB, 2′,2′,-dofluoro-2′,-deoxycytidine]
IC50 (BT20): 50 µM | IC50 (BT474; Homo sapiens, BT-474, gemcitabine single agent, read-out: IC50 GCB): 100 µM | IC50 (MDAMB134; Homo sapiens, gemcitabine single agent, read-out: IC50 GCB): 100 µM | IC50 (MDAMB231; Homo sapiens, MDA-MB-231, gemcitabine single agent, read-out: IC50 GCB): 100 µM | IC50 (Mia Paca-2 cells): > 10 µM

Cc1ccc(NC(=O)c2ccc(CN3CCN(C)CC3)cc2)cc1Nc1nc(-c2cccnc2)cs1 [Masitinib mesilate]
IC50 (breast cancer cell lines): > 6 µM
